Paper PMC7962536, “Isolation, Characterization, and Medicinal Potential of Polysaccharides of Morchella esculenta” (Molecules, 2021)
≈ marks a conversion by molar mass, not a printed value.

Molecular target: T1, tyrosinase enzyme from mushrooms
T1 construct: gene PPO1; native mushroom tyrosinase preparation
Assay: spectrophotometric L-DOPA oxidation, […] nm
Assay type: biochemical
Conditions: L-DOPA as substrate, sodium phosphate buffer pH 6.8, 37 °C, 10 min preincubation; unreliable: extrapolated below the lowest listed concentration 12.5 µg/mL

IC50: 8.25 ± 0.36 µg/mL (≈ 58.1 µM)
SMILES: O=c1cc(CO)occ1O [kojic acid]
